Reference: PubChem BioAssay AID330 (DTP/NCI, 2004)
Values joined by “and” are separate entries in the source; they are usually repeats but may differ in a detail not shown here. Equal entries are not always repeated. Toxic doses and inconclusive results are not listed. How the source made its calls: active means survival T/C of 150% or more; inactive means T/C below 125% in these data.

Tested on: P388 leukemia ip, CD2F1 mice, survival T/C
Experiment: NCI In Vivo Anticancer Drug Screen. Data for tumor model P388 Leukemia (intraperitoneal) in CD2F1 (CDF1) mice
Conditions: endpoint: median survival time, higher = longer survival
How it was run: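 Mice carrying the transplanted tumor received test compound or vehicle. Survival was recorded in each group, and the value is the treated-group measurement divided by that of the vehicle-treated control group.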

[1] = dose: 50.0 mg/kg/injection, schedule: Q01DX009 (ip), vehicle: saline
[2] = dose: 100.0 mg/kg/injection, schedule: Q01DX009 (ip), vehicle: saline
[3] = dose: 200.0 mg/kg/injection, schedule: Q01DX009 (ip), vehicle: saline
[4] = dose: 50.0 mg/kg/injection, schedule: Q01DX009 (ip), vehicle: saline with Tween-80
[5] = dose: 100.0 mg/kg/injection, schedule: Q01DX009 (ip), vehicle: saline with Tween-80
[6] = dose: 200.0 mg/kg/injection, schedule: Q01DX009 (ip), vehicle: saline with Tween-80
[7] = dose: 60.0 mg/kg/injection, schedule: Q01DX005 (ip), vehicle: saline
[8] = dose: 120.0 mg/kg/injection, schedule: Q01DX005 (ip), vehicle: saline
[9] = dose: 25.0 mg/kg/injection, schedule: Q01DX005 (ip), vehicle: saline with Tween-80
[10] = dose: 50.0 mg/kg/injection, schedule: Q01DX005 (ip), vehicle: saline with Tween-80

Measured: T/C

ClC1=CCCCC1
inactive: dose: 25.0 mg/kg/injection, schedule: Q01DX009 (ip), vehicle: saline 100 % of control | [1] 100 % of control | [2] 110 % of control

COc1cccc(C(=O)OCCC(C)C)c1O
inactive: [1] 110 % of control | [2] 110 % of control and 92 % of control | [3] 104 % of control and 117 % of control

CC1(C)OC2C(CO)OC(n3ncc(=S)[nH]c3=O)C2O1 (stereo not given)
inactive: dose: 100.0 mg/kg/injection, schedule: Q04DX003 (ip), vehicle: saline with Tween-80 102 % of control | dose: 200.0 mg/kg/injection, schedule: Q04DX003 (ip), vehicle: saline with Tween-80 86 % of control | dose: 400.0 mg/kg/injection, schedule: Q04DX003 (ip), vehicle: saline with Tween-80 97 % of control

CCOC(=O)Cc1cc(O)c(C(=O)OCC)c(O)c1C(=O)OCC
inactive: dose: 100.0 mg/kg/injection, schedule: Q01DX001 (ip), vehicle: saline with Tween-80 105 % of control | dose: 200.0 mg/kg/injection, schedule: Q01DX001 (ip), vehicle: saline with Tween-80 105 % of control | dose: 400.0 mg/kg/injection, schedule: Q01DX001 (ip), vehicle: saline with Tween-80 99 % of control

CC(N)C(=O)NC(C(=O)O)C(C)C (stereo not given)
inactive: dose: 25.0 mg/kg/injection, schedule: Q01DX009 (ip), vehicle: saline with Tween-80 102 % of control | dose: 50.0 mg/kg/injection, schedule: Q01DX005 (ip), vehicle: saline 93 % of control | [4] 100 % of control | dose: 100.0 mg/kg/injection, schedule: Q01DX005 (ip), vehicle: saline 100 % of control | [5] 96 % of control | dose: 200.0 mg/kg/injection, schedule: Q01DX005 (ip), vehicle: saline 98 % of control | [6] 111 % of control

CC(=O)Nc1nc(C)c(S(=O)(=O)Cl)s1
inactive: [1] 102 % of control | [2] 98 % of control | [3] 102 % of control | dose: 400.0 mg/kg/injection, schedule: Q01DX009 (ip), vehicle: saline 94 % of control

OCC(O)CNc1ncnc2cc(Cl)ccc12 (stereo not given)
inactive: dose: 25.0 mg/kg/injection, schedule: Q01DX005 (ip), vehicle: Klucel (hydroxypropylcellulose) (HPC) 100 % of control | dose: 50.0 mg/kg/injection, schedule: Q01DX005 (ip), vehicle: Klucel (hydroxypropylcellulose) (HPC) 96 % of control | dose: 100.0 mg/kg/injection, schedule: Q01DX005 (ip), vehicle: Klucel (hydroxypropylcellulose) (HPC) 102 % of control | dose: 200.0 mg/kg/injection, schedule: Q01DX005 (ip), vehicle: Klucel (hydroxypropylcellulose) (HPC) 105 % of control

CCC(=O)C(=O)c1ccc(O)c(C)c1O
inactive: [4] 100 % of control | [5] 96 % of control | [6] 90 % of control

O=[N+]([O-])c1cc2c(cc1Cl)C1C(C3C2C2(Cl)C(Cl)=C(Cl)C3(Cl)C2(Cl)Cl)C2(Cl)C(Cl)=C(Cl)C1(Cl)C2(Cl)Cl (stereo not given)
inactive: [1] 101 % of control | [2] 109 % of control | [3] 106 % of control

COc1nc2c(nnn2C2OC(CO)C(O)C(O)C2O)c(=O)[nH]1 (stereo not given)
inactive: [7] 97 % of control | [8] 99 % of control | dose: 240.0 mg/kg/injection, schedule: Q01DX005 (ip), vehicle: saline 100 % of control

CCOC(=O)C1(C)CCCC1N (stereo not given)
inactive: [7] 92 % of control | [8] 90 % of control

CCOc1cc2c(cc1Cc1c(OC)cc(OC)cc1OC)OCO2
inactive: dose: 60.0 mg/kg/injection, schedule: Q01DX005 (ip), vehicle: saline with Tween-80 90 % of control | dose: 240.0 mg/kg/injection, schedule: Q01DX005 (ip), vehicle: saline with Tween-80 99 % of control

Oc1c(C(c2ccccc2)N2CCCCC2)ccc2ccccc12 (stereo not given)
inactive: [4] 110 % of control | [5] 105 % of control | [6] 90 % of control

O=c1[nH]c2cc3c(cc2n2cccc12)oc1ccccc13
inactive: [9] 98 % of control | [10] 100 % of control | dose: 100.0 mg/kg/injection, schedule: Q01DX005 (ip), vehicle: saline with Tween-80 100 % of control | dose: 200.0 mg/kg/injection, schedule: Q01DX005 (ip), vehicle: saline with Tween-80 100 % of control

Cc1ncc(N)c2c1OC(C)(C)OC2
inactive: dose: 12.5 mg/kg/injection, schedule: Q01DX005 (ip), vehicle: saline with Tween-80 102 % of control | [9] 103 % of control | [10] 99 % of control and 101 % of control
